Measurements published in patent publication US20230348538A1, “METHOD FOR TREATMENT OF DRY EYE COMPRISNG APPLYING P55PIK INHIBITOR” (Wuhan Yicheng Biological Technology Co., Ltd., priority 2020, published 2023).
“Also recorded” adds a separate entry of the source.

Columns and labels:
[1] = test system: volunteers diagnosed with dry eye syndrome; experiment: Population experiment: volunteers with dry eye syndrome; type: in vivo, human; conditions: 0.1% eye drops, 1-2 drops
Description: Currently, volunteers have been recruited to test the dry eye therapeutic effect of the 0.1% TAT-N16 peptide eye drops disclosed by the disclosure.

[2] = test system: rat model of dry eye caused by low tear secretion; experiment: Rat model of dry eye caused by low tear secretion (atropine): lacrimal secretion test (Schirmer's test II); type: in vivo, SD rats
Description: 1.2.2 Modeling: a rat model of dry eye caused by low tear secretion, was established using the Burgalassi method of atropine injection into the lacrimal glands; eighteen laboratory rats, with equal numbers of male and female, were given 0.4% oxybucaine hydrochloride eye drops in both eyes and injected with 0.25 mL of 0.5 mg/mL atropine into the lacrimal glands four times a day for both eyes; the results of lacrimal secretion test were recorded 0.5 hours after the atropine injection every day; and the atropine injection was continued until the 7th day.
Grouping and administration: six laboratory rats, with equal numbers of male and female, were used as the normal control group and were not modeled; the eighteen successfully modeled laboratory rats were randomly divided into three model groups, with 6 rats in each model group, half male and half female; Model group 1 was the blank control group and received no treatment; Model group 2 was the solvent control group and treated with solvent eye drops that contained a solvent but no TAT-N16 peptide; Model group 3 was the drug treatment group and was treated with eye drops comprising 0.1% TAT-N16 peptide; the eye drops was administered four times a day (1 drop/time) for 7 days; the amount of the lacrimal secretion of each eye was recorded on days 0, 4 and 7 after treatment; the expression levels of P55PIK gene and p55PIK protein in the rat eyes of the normal control group and the model groups were detected.
1.2.2.1 Lacrimal secretion test (Schirmer's test II): due to the smaller eyeballs of SD rats compared to human, the Schirmer tear test strips designed for human use were not suitable for use in the SD rats; therefore, the Schirmer's test II was conducted by cutting a 5 mm x 35 mm Schirmer tear test strip into two strips of 2.5 mm×35 mm each, folding the front end, and lightly placing the Schirmer tear test strip at the junction of the posterior-middle ⅓ of the lower eyelid; after 5 minutes, the Schirmer tear test strips were removed; and the length of the Schirmer tear test strips wetted by tears were measured for 2 minutes and the measurement was repeated three times to obtain an average value; the results were recorded before the treatment, and on the 4th and 7th day after treatment.

[3] = test system: rabbit model of dry eye (0.1% benzalkonium chloride); experiment: Rabbit model of dry eye: tear film break-up time test; type: in vivo, New Zealand white rabbits
Description: 1.2.1 Grouping: thirty New Zealand white rabbits were randomly divided into three groups, each comprising 10 rabbits: a blank control group, a solvent control group, and a drug treatment group.
1.2.2 Preparation of a rabbit model of dry eye: the right eye of each rabbit was used to establish a dry eye rabbit model by administering 0.1% benzalkonium chloride eye drops twice a day for 4 weeks. After 4 weeks, the dry eye rabbit model was evaluated, with the conjunctiva appearing dry, tear production being reduced, and Schirmer test values being less than 10 mm/5 min (compared to the control group, where all Schirmer test values were above 10 mm).
1.2.3 Drug preparation and usage: a liquid formulation of 0.1% TAT-N16 peptide eye drops were prepared by dissolving the peptide raw materials in physiological saline according to a weight ratio of 0.1%. The eye drops comprising 0.1% TAT-N16 peptide were administered 2 drops, 3 times a day for 7 days. […]
1.3 Specimen collection and animal testing were conducted by the same individual. […] The rabbit conjunctiva appearance, fluorescein staining, tear film break-up time were analyzed using a slit lamp before and on days 4 and 7 after treatment; additionally, the Schirmer's test and conjunctival impression cytology (CIC) were carried out.
1.3.2 Tear film break-up time test: the fluorescein sodium ophthalmic strips were placed on the lower conjunctival sac for a moment, so that the fluorescein sodium was evenly distributed on the ocular surface; the eyelid was maintained open and observed under cobalt blue filter on a slit lamp; the tear film break-up time was recorded as the number of seconds that elapse between the last blink and the appearance of the first dry spot in the tear film of the cornea; The time from the opening of the eyelid to the appearance of the first dry spot on the tear film was recorded under a slit lamp microscope with cobalt blue light; each eye was measured three times, and the average of the three measurements was recorded in seconds.

[4] = test system: rat model of dry eye induced by corneal epithelial injury; experiment: Rat model of dry eye induced by corneal epithelial injury: corneal epithelial injury score (sodium fluorescein, slit lamp); type: in vivo, SD rats
Description: Grouping and administration: the eighteen rats were then randomly divided into three groups, with 6 laboratory rats in each group (male and female in equal numbers); Group 1 was the blank control group and received no treatment; Group 2 was the solvent control group and was treated with solvent eye drops that contained a solvent but no TAT-N16 peptide; Group 3 was the drug treatment group and was treated with eye drops comprising 0.1% TAT-N16 peptide; the eye drops were administered four times a day (1 drop/time) for 7 days; the corneal epithelial injury was evaluated on days 0, 4 and 7 after treatment.
Detection method and scoring criteria: corneal staining was performed by injecting 1 drop pf sodium fluorescein into the conjunctival sac using the 5 mL sterile syringe with the […] needle; the corneal epithelium was observed under the blue light from the slit lamp after 5 minutes; and the scoring criteria were shown in Table 1.

[5] = test system: dry eye model induced by 0.2% benzalkonium chloride solution; experiment: Benzalkonium chloride dry eye model: conjunctival goblet cells (PAS staining); type: in vivo, C57BL/6 mice
Description: The healthy male C57BL/6 mice were kept in a controlled environment with a temperature of (25±1)° C., a relative humidity of (25±5)%, and light-dark cycles (9 AM-9 PM) with simulated dawn and dusk. Forty mice (80 eyes) were treated with 5 μL of 0.2% benzalkonium chloride solution twice a day (8:00 AM and 6:00 PM) for 14 days to induce dry eye symptoms, while the remaining ten mice (20 eyes) received no treatment and served as a baseline control. […] Group A, the drug treatment group, was treated with the eye drops comprising 0.1% TAT-[…] peptide, four times a day; Group B, the solvent control group, was treated with eye drops without TAT-[…] peptide, four times a day; and Group C, the blank control group, received no treatment; on days 1, 4, and 7 after treatment, BUT, Schirmer's test I, and fluorescein sodium staining were performed; on the 7th day, the paraffin sections of the conjunctival fornix was stained by PAS stain; and the number of PAS-positive goblet cells was counted.

[6] = single cases, three (case 4: three to five) times a day
[7] = after 4 days of treatment, 0.1% eye drops four times a day
[8] = after 7 days of treatment, 0.1% eye drops four times a day
[9] = before treatment (baseline), drug treatment group, 0.1% eye drops

## TAT-N16 peptide: cell-penetrating artificial peptide, sequence SEQ ID NO: 2, constructed by linking the peptide N16 to a TAT sequence; P55PIK inhibitor (YGRKKRRQRRRMMPYSTELIFYIEMDP)
[1]; single case, three times a day
  Dry eye symptoms within three days of use: significantly improved
[1]; [6]
  Conjunctival congestion after a week of use: cleared up; also recorded: disappeared
  Dry eye symptoms after a week of use: essentially disappeared; also recorded: mostly disappeared; also recorded: disappeared completely; also recorded: largely eliminated
[1]; single cases, three times a day
  Dry eye symptoms on the first day of use: improved significantly; also recorded: significantly relief
[2]; 4th and 7th day of treatment, P<0.05
  Tear secretion compared with the control groups: significantly higher
[2]; [7]
  Schirmer's test II values (x ± s, n = 6): 5.74 ± 1.59 mm
[2]; [8]
  Schirmer's test II values (x ± s, n = 6): 8.58 ± 1.73 mm
[2]; [9]
  Schirmer's test II values (x ± s, n = 6): 3.29 ± 1.34 mm
[3]; 0 d / before treatment (baseline), drug treatment group
  Tear film break-up time (BUT) values: 8.24 ± 1.13 s
[3]; 4 d, 0.1% eye drops 2 drops, 3 times a day
  Tear film break-up time (BUT) values: 11.72 ± 1.27 s
[3]; 7 d, 0.1% eye drops 2 drops, 3 times a day
  Tear film break-up time (BUT) values: 15.31 ± 1.85 s
[4]; 4 days of treatment, P>0.05
  Corneal epithelial injury score compared with blank control group or solvent control group: no statistically significant difference
[4]; 7 days of treatment, P<0.05
  Corneal epithelial injury score compared with blank control group or solvent control group: significantly lower
[4]; [7]
  Corneal epithelial injury scores (x ± s, n = 6): 3.08 ± 1.43
[4]; [8]
  Corneal epithelial injury scores (x ± s, n = 6): 0.84 ± 0.96
[4]; [9]
  Corneal epithelial injury scores (x ± s, n = 6): 4.81 ± 1.61
[5]; 7 days of continuous treatment, P<0.01, FIG. 4
  Density of conjunctival goblet cells compared with blank control group and solvent control group: significantly higher
[5]; after treatment with the eye drops
  Number of conjunctival goblet cells (PAS-stained paraffin sections of the conjunctival fornix): increased significantly
